# Measured values from patent publication US10874670B2, “Substituted fused heteroaromatic compounds as kinase inhibitors and the use thereof” (IMPACT THERAPEUTICS, INC., priority 2017, dated 2020).
# What was measured:
# [1] = system: human colon cancer cell SW620; assay: MTT assay, growth of SW620 cells, compounds combined with CPT-11; format: cell-based; conditions: Homo sapiens, SW-620, 120 h; combined with CPT-11 (205 nM medium), 5 days, MTT
# How it was run: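 SW620 cells in RPMI 1640/10% FBS were exposed to 8-point compound dilutions (top 10 or 1 μM, 1% DMSO final) plus CPT-11 (205 nM in added medium) for 5 days at 37 °C. Viability by MTT (0.5 mg/mL, 4 h) absorbance; IC50 from sigmoidal fit.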
# [2] = system: human breast cancer cell MDA-MB-468; assay: MTT assay, growth of MDA-MB-468 cells; format: cell-based; conditions: Homo sapiens, MDA-MB-468, 168 h; 7 days, MTT
# How it was run: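 MDA-MB-468 cells in RPMI 1640 with 10% FBS were exposed to 8-point compound dilutions (final DMSO 1%) for 7 days at 37 °C, with drug-containing medium renewed on day 4. Viability was read by MTT (0.5 mg/mL, 4 h) absorbance at 552/630/690 nm. IC50 came from a sigmoidal dose-response fit.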
# ATM enzyme (human) = ATM enzyme (human) (Homo sapiens, UniProt Q13315); assay: ATM kinase assay (HTRF, GST-cMyc-p53 substrate); format: biochemical; conditions: 0.5 h, read-out: Inh (%) of ATM kinase; for inhibition at 1 µM: C 1 μm (final concentration of compound); for inhibition at 0.01 µM: C 0.01 μm (final concentration of compound); for inhibition at 0.1 µM: C 0.1 μm (final concentration of compound)
# How it was run: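 Reaction with GST-cMyc-p53 substrate started with Mg/ATP, run 30 minutes at room temperature, then stopped with EDTA. Phospho-p53 (Ser15) detected by HTRF with Eu-labelled anti-phospho antibody and d2 anti-GST, signal as 10000×(Em665/Em620). Duplicates; IC50 from a curve fit with slope factor.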
# Chain of ATM enzyme (human) (Q13315 whole entry): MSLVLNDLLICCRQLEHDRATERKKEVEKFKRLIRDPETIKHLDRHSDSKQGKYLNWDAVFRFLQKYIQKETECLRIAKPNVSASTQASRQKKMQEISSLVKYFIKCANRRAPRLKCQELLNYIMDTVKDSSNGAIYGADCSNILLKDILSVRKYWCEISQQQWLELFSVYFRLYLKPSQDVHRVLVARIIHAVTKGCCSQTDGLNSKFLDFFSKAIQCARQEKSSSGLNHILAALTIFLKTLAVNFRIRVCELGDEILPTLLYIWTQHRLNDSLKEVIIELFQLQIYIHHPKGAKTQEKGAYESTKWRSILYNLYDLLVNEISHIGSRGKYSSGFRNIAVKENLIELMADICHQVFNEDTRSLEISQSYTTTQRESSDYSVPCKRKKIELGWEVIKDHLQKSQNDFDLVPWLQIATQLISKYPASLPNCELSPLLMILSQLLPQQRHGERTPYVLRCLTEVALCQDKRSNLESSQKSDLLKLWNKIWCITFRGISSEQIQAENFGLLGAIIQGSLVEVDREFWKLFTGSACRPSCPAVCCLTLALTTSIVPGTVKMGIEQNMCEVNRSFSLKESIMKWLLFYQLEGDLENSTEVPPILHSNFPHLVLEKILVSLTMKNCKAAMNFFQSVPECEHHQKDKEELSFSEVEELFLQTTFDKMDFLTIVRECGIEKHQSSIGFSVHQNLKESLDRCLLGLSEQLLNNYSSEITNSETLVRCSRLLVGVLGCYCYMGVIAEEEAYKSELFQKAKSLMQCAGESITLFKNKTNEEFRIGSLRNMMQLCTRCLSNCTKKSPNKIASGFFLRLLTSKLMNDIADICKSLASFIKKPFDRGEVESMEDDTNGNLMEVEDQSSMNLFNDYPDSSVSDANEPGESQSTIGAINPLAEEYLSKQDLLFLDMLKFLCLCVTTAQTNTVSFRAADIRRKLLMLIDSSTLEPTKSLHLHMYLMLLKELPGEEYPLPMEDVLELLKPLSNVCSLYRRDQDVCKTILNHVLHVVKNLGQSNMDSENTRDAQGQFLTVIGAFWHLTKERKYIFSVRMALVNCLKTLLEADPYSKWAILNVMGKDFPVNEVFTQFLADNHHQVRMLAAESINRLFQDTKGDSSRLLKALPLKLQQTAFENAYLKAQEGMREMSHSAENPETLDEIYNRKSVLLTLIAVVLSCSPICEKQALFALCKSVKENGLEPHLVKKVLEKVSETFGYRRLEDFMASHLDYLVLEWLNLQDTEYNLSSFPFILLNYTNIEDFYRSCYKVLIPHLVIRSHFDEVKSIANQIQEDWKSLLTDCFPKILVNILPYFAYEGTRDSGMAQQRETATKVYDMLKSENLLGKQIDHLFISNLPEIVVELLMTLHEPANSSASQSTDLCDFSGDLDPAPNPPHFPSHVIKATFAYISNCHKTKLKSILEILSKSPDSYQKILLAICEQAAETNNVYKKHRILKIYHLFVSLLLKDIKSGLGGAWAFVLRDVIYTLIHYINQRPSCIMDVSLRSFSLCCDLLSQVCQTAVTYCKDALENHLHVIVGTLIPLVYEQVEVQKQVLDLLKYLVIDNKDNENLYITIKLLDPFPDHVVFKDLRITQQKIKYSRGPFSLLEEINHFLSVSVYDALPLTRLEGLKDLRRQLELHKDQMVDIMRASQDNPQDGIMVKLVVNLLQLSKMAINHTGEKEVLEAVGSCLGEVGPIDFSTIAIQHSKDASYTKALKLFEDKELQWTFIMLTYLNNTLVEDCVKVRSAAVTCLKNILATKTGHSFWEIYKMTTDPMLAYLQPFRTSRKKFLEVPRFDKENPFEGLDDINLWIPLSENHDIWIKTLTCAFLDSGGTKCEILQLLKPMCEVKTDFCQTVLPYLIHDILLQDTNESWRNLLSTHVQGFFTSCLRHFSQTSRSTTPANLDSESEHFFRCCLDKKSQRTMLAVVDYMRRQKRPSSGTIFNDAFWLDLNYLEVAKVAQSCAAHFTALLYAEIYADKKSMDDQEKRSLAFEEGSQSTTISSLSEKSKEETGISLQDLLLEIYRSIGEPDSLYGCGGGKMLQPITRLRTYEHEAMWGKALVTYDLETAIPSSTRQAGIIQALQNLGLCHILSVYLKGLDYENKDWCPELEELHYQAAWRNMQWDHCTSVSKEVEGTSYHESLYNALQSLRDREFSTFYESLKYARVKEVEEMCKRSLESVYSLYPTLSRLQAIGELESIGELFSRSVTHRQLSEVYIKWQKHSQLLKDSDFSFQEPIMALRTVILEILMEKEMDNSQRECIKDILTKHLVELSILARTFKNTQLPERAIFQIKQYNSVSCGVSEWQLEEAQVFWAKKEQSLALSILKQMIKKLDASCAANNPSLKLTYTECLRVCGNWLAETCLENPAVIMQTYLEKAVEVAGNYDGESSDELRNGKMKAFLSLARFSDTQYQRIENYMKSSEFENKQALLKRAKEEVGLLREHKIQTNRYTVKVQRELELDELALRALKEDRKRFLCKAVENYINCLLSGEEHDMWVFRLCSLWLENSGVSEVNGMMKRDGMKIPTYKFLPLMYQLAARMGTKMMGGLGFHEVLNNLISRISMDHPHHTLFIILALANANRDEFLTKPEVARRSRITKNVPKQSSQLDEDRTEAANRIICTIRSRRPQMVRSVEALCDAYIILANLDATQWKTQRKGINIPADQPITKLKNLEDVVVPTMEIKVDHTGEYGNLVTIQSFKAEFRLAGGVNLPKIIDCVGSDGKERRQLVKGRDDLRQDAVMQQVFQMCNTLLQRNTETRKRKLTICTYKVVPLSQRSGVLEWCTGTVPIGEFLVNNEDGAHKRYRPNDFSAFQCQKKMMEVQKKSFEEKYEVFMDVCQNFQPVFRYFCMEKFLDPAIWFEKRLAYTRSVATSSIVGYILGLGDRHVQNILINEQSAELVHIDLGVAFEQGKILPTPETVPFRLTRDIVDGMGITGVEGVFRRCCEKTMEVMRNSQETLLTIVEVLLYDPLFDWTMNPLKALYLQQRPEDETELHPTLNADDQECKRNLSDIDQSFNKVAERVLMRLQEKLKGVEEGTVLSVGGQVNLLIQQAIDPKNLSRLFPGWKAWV
SMILES,IC50 [1],IC50 [2],inhibition at 1 µM (ATM enzyme (human)),inhibition at 0.001 µM (ATM enzyme (human); C 0.001 μm (final concentration of compound)),inhibition at 0.01 µM (ATM enzyme (human)),inhibition at 0.1 µM (ATM enzyme (human))
"CNC1CCN(c2ccc(-c3cc4c(cn3)ncc3nnc(C5CCOCC5)n34)cc2)CC1 [Example 70, N-methyl-1-(4-(1-(tetrahydropyran-4-yl)pyrido[3,4-e][1,2,4]triazolo[4,3-a]pyrazin-8-yl)phenyl)piperidin-4-amine]",> 10000 nM,> 100000 nM,4%,–,–,–
"CN(C)C1CCN(c2ccc(-c3cc4c(cn3)ncc3nnc(C5CCOCC5)n34)cc2)CC1 [Example 71, N,N-dimethyl-1-(4-(1-(tetrahydro-2H-pyran-4-yl)pyrido[3,4-e][1,2,4]triazolo[4,3-a]pyrazin-8-yl)phenyl)piperidin-4-amine]",> 100000 nM,> 100000 nM,19%,–,–,–
"CN(C)C1CCN(c2ccc(-c3ccc4ncc5nnc(C6CCOCC6)n5c4n3)cc2)CC1 [Example 72, N,N-dimethyl-1-(4-(9-(tetrahydro-2H-pyran-4-yl)pyrido[3,2-e][1,2,4]triazolo[4,3-a]pyrazin-2-yl)phenyl)piperidin-4-amine]",62.9 nM,104 nM,99%,39%,82%,97%
"NC1CCN(c2ccc(-c3ccc4ncc5nnc(C6CCOCC6)n5c4n3)cc2)CC1 [Example 73, 1-(4-(9-(tetrahydro-2H-pyran-4-yl)pyrido[3,2-e][1,2,4]triazolo[4,3-a]pyrazin-2-yl)phenyl)piperidin-4-amine]",191 nM,210 nM,100%,–,–,–
"CN(C)C1CCN(c2ccc(-c3ccc4ncc5nnc(C6CCOCC6)n5c4n3)cn2)CC1 [Example 76, N,N-dimethyl-1-(5-(9-(tetrahydro-2H-pyran-4-yl)pyrido[3,2-e][1,2,4]triazolo[4,3-a]pyrazin-2-yl)pyridin-2-yl)piperidin-4-amine]",818 nM,262 nM,100%,–,–,–

# More lines, now with the values ahead:
IC50 [1],IC50 [2],inhibition at 1 µM (ATM enzyme (human)),inhibition at 0.001 µM (ATM enzyme (human); C 0.001 μm (final concentration of compound)),inhibition at 0.01 µM (ATM enzyme (human)),inhibition at 0.1 µM (ATM enzyme (human)),SMILES
199 nM,305 nM,100%,–,66%,96%,"CNC1CCN(c2ccc(-c3ccc4ncc5nnc(C6CCOCC6)n5c4n3)cc2)CC1 [Example 74, N-methyl-1-(4-(9-(tetrahydro-2H-pyran-4-yl)pyrido[3,2-e][1,2,4]triazolo[4,3-a]pyrazin-2-yl)phenyl)piperidin-4-amine]"
158 nM,168 nM,100%,–,–,–,"CCNC1CCN(c2ccc(-c3ccc4ncc5nnc(C6CCOCC6)n5c4n3)cc2)CC1 [Example 75, N-ethyl-1-(4-(9-(tetrahydro-2H-pyran-4-yl)pyrido[3,2-e][1,2,4]triazolo[4,3-a]pyrazin-2-yl)phenyl)piperidin-4-amine]"
1010 nM,937 nM,97%,–,–,–,"CNC1CCN(c2ccc(-c3ccc4ncc5nnc(CN6CCOCC6)n5c4n3)cc2)CC1 [Example 77, N-methyl-1-(4-(9-(morpholinomethyl)pyrido[3,2-e][1,2,4]triazolo[4,3-a]pyrazin-2-yl)phenyl)piperidin-4-amine]"
